Experimental findings from patent publication US12528777B2, “Quinazolinones derivatives for treatment of non-alcoholic fatty liver disease, preparation and use thereof” (Council of Scientific and Industrial Research, priority 2020, dated 2026) are described below.

“Also recorded” adds a separate entry of the source.

Common to all, as to assay type: cell-based
Data set [1] concerns ATGL. As to the kind of experiment: ATGL level in primary mouse hepatocytes (western blot). Particulars: 24 hours. The procedure:
(§1) To further strengthen the efficiency of the compounds 9 and 107, primary hepatocytes were isolated from mice and these compounds were treated in a dose dependent manner for 24 hours. Primary hepatocytes and adipose tissue explants were isolated from mice and subjected to compound treatment for 24 hours at the doses of 100 nM, 500 nM and 1 μM. Post cell harvesting, western blot was carried out with the lysate to check the ATGL level. ATGL and COP1 antibodies were used. Actin served the purpose of a loading control.
(§2) 1. Hepatocytes—2-4 months old chow-fed black male mouse (C57bl/6) was sacrificed using chloroform (SRL) and was cleaned with 70% ethanol. […] Blood was drawn from the heart in order to prevent backflow into liver while perfusion. The butterfly cannula was inserted into the PV and 20 ml of HBSS (Hank's Balanced Salt Solution; 5 mM KCl, 0.4 mM KH2PO4, 4 mM NaHCO3, 140 mM NaCl, 0.3 mM Na2HPO4, 6 mM Glucose, HEPES, 0.5 mM MgCl2·6H2O, 0.4 mM MgSO4·7H2O, 0.5 mM EDTA; not containing 1 mM CaCl2)) was allowed to pass through the liver (Perfusion) at a constant flow rate of 3 ml/min, maintained by Masterflex digital peristaltic pump (Cole-Parmer). The IVC was cut as soon as the passage of the buffer through the liver began, so that blood and perfusate from liver is drained through the IVC. The liver blanched and became pale in color upon this treatment.
After the passage of HBSS, 25 ml of Collagenase (Roche) solution (1 mg/ml) in HBSS (containing 1 mM CaCl2)) was allowed to pass through the liver at a constant flow rate of 2 ml/min. After this digestion, the flow was stopped, the cannula removed and the pale and soggy lobes of the liver were gently excised from the body. The gall bladder was removed from the isolated liver. The pieces of digested liver tissue were then minced on a 10 cm culture plate in HBSS (containing 1 mM CaCl2)). The resulting suspension was then passed through a […] cell strainer (SPL) to allow hepatocytes to pass through to the filtrate and retain cellular clumps and undigested tissue. The filtrate was centrifuged at 50 g for 2 minutes at 4° C. […]

Data set [2] relates to ATGL. In words: ATGL level in mouse adipose tissue explants (western blot). The settings on record: 24 hours, 100 nM, 500 nM and 1 μM. On the procedure:
as §1
2. Adipocytes—2-4 months old chow-fed black male mouse (C57bl/6) was sacrificed using chloroform (SRL) and was cleaned with 70% ethanol. Under aseptic conditions, the ventral side of the mouse was cut open, and gonadal (epididymal) white adipose tissue were excised using scissors and suspended in 1×PBS supplemented with 0.1% BSA in a 10 cm culture plate. The attached blood vessels were removed and the adipose tissue was minced as much as possible. The suspension was centrifuged at 50 g for 2 minutes at 4° C. After centrifugation, the adipose tissue pieces suspended at the uppermost layer of the supernatant as emulsion were carefully extracted and plated in DMEM in 35 mm culture dishes. The explant tissue thus obtained was treated with different concentrations of compounds after 6-7 hours.

Data set [3] deals with ATGL. In words: Reversal of ATGL decrease in COP1 overexpressing HepG2 cells. Particulars: myc-DDK-COP1, 5 μM, 24 hours. The procedure:
COP1 is an E3 ubiquitin ligase with ATGL as one of its targets for ubiquitination and subsequent proteasomal degradation by 26S proteasome. Therefore, it is only legit for ATGL levels to decrease upon COP1 overexpression. To this end, HepG2 cells were transfected with 500 ng of myc-DDK-COP1 plasmid using Lipofectamine 2000 and treated with 5 μM of the compounds 9 and 10 for 24 hours. 48 hours post transfection, cells were harvested and western blot was carried out.

For data set [4], the target named is COP1 (Homo sapiens, UniProt Q8NHY2). In words: Western blot of COP1 level in HepG2 cells. The settings on record: 24 hours, dose dependent. The procedure: HepG2 cells were treated with the compounds 9, 10, 11, 17, 18, 23, 24, 115, 123, 127, 139,107, 171, 179, 73, 187, 211, 215, 219, 223, 232, 238, 241, 244, 258, 299, 308, and 333a, (10 μM for initial screening and 50 nM, 100 nM, 200 nM, 500 nM, 1 μM and 5 μM for dose dependent assays) for 24 hours. After removing media from the cells, the wells were washed with 1×PBS twice to remove any remnant media. Cells were then lysed in lysis buffer containing 50 mM Tris-HCl (pH 7.4), 100 mM NaCl, 1 mM EDTA, 1 mM EGTA, 1% Triton X-100 and protease inhibitor cocktail (Millipore, Billierica, MA, USA). Following centrifugation at 20,000 g for 20 minutes, the protein solution was extracted from the cells. Protein was estimated using Bradford assay. Bradford's reagent (BioRad) was diluted in 1:4 ratio in double distilled water. 2 μl of protein sample was added to 100 μl of the reagent and absorbance was measured at 595 nm. […] of protein was diluted in lysis buffer. 1× loading buffer diluted from 5× stock containing 250 mM Tris-HCl (pH 6.8), 10% SDS, 50% glycerol, 0.1% bromophenol Blue and 10% β-mercaptoethanol was added. The protein samples were then heated at 95° C. for 10 minutes, cooled and centrifuged at 12,000 g for 2 minutes prior to loading.
For western blotting, the proteins were resolved in 10% SDS PAGE (discontinuous buffer system). […]

Data set [5] deals with COP1 (Mus musculus, UniProt Q9R1A8). As to the kind of experiment: COP1 level in primary mouse hepatocytes (western blot). The settings on record: 24 hours. More on the design: endogenous in cells; host or cells: primary mouse hepatocytes (C57bl/6). The procedure:
as §1
as §2, with “treatment. […]” for “treatment.”
(In general: In western blotting, separated proteins are transferred to a membrane and probed.)

COP1 (Homo sapiens, UniProt Q8NHY2), sequence (Q8NHY2 whole entry): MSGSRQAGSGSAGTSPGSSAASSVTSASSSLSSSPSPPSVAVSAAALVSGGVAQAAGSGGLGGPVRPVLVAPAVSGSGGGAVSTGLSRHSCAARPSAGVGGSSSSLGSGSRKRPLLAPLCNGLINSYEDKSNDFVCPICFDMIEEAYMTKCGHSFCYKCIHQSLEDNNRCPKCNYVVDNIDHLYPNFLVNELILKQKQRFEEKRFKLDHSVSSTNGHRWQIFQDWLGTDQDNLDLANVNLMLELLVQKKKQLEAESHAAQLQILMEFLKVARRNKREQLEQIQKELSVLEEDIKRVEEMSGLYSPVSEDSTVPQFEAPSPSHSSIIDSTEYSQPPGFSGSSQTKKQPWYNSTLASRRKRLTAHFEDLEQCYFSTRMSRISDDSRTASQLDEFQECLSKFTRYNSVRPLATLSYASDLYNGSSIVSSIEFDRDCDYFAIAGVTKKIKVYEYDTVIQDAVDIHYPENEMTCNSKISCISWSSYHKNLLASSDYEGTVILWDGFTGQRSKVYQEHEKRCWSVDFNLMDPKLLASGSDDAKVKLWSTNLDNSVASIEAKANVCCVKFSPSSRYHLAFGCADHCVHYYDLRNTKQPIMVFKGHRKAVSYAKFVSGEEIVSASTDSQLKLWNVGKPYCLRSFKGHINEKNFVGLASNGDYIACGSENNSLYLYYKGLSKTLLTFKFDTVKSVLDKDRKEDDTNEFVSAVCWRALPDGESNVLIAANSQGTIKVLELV
COP1 (Mus musculus, UniProt Q9R1A8), sequence (Q9R1A8 whole entry): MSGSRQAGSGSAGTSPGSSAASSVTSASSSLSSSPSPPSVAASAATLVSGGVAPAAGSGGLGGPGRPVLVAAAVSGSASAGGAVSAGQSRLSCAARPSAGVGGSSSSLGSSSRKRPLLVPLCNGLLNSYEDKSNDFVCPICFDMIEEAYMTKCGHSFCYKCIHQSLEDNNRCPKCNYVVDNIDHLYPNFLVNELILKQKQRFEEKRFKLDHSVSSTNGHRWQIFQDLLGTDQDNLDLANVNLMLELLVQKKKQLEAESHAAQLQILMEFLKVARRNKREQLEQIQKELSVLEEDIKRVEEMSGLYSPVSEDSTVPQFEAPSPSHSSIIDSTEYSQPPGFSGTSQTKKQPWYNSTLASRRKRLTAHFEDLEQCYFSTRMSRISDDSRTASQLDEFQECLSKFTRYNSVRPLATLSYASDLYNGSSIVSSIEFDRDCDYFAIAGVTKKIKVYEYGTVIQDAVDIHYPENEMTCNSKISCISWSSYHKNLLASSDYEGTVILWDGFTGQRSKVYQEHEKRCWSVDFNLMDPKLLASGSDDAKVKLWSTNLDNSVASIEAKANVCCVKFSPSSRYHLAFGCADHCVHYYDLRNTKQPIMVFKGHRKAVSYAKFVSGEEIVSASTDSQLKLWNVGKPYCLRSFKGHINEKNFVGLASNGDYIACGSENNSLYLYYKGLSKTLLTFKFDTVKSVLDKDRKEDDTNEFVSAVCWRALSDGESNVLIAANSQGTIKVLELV

Take `COCCn1cnc2ccc(NC(=O)Nc3cccc(C(C)=O)c3)cc2c1=O` [Compound 9, 1-(3-acetylphenyl)-3-(3-(2-methoxyethyl)-4-oxo-3,4-dihydroquinazolin-6-yl)urea]: in data set [1], the “ATGL level in primary mouse hepatocytes” value was “increase ATGL level; also recorded: subtle inclination towards increasing ATGL level”. Moreover, the “ATGL level in mouse adipose explants” value in data set [2] is on record as “no such changes were observed; also recorded: this effect was absent; also recorded: did not show any significant changes in ATGL protein”. Further, the “Restoration of ATGL level upon COP1 overexpression” value in data set [3] was “could restore the reduced ATGL level; also recorded: could restore ATGL to its normal level”.
In the case of `COCCn1c(CN2CCCCC2)nc2ccc(NC(=O)Nc3cccc(C(C)=O)c3)cc2c1=O` [Compound 238, 1-(3-acetylphenyl)-3-(3-(2-methoxyethyl)-4-oxo-2-(piperidin-1-ylmethyl)-3,4-dihydroquinazolin-6-yl)urea], the “COP1 level in HepG2 cells” value in data set [4] was “most potent in increasing ATGL and COP1 levels; also recorded: increase in ATGL and COP1 levels”. In data set [1], the “ATGL level in primary mouse hepatocytes” value is “increase ATGL and COP1 levels dose dependently; also recorded: enhance ATGL levels at 1 μM and 5 μM doses”. Further, the “COP1 level in primary mouse hepatocytes” value in data set [5] was “increase ATGL and COP1 levels dose dependently; also recorded: increased only with 5 μM concentration”.
Regarding `COCCn1c(C)nc2ccc(NC(=O)Nc3cccc(C(C)=O)c3)cc2c1=O` [Compound 107, 1-(3-acetylphenyl)-3-(3-(2-methoxyethyl)-2-methyl-4-oxo-3,4-dihydroquinazolin-6-yl)urea], in data set [1], the “ATGL level in primary mouse hepatocytes” value is “increase ATGL level; also recorded: subtle inclination towards increasing ATGL level”. Further, the “ATGL level in mouse adipose explants” value in data set [2] is “no such changes were observed; also recorded: this effect was absent; also recorded: did not show any significant changes in ATGL protein”.
